# According to patent US7700763B2, “3-triazolyl-galactoside inhibitors of galectins” (Forskarpatent I Syd AB, priority 2004, dated 2010):
# Like-named read-outs stand apart in the source and are kept apart here.
# Tests used:
# [1] = molecular target: T1, Recombinant human galectin-3 (Homo sapiens, UniProt P17931); experiment: fluorescence polarization-based galectin-3 inhibition assay; type: binding
# T1 construct: made in house; host or cells: Escherichia coli
# Procedure: NMR-spectra were recorded with a Bruker DRX-400 instrument. Chemical shifts are given in ppm, with reference to internal residual solvent peaks. Chemical shifts and coupling constants were obtained from ^1H-NMR and proton resonances were assigned from COSY experiments. High-resolution FAB mass spectra (HRMS) were recorded with a JEOL SX-120 instrument. Fluorescence polarization experiments were performed on a PolarStar instrument (BMG, Offenburg; Germany). Column chromatography was performed on SiO2 (Matrex, 60 Å, 35-70 μm, Grace Amicon) and TLC was carried out on SiO2 60 F254 (Merck) with detection under UV light and developed with aqueous sulfuric acid. Concentrations were made using rotary evaporation with bath temperature at or below 40° C. CH2Cl2 and CH3CN were dried by distillation from CaH2. Microwell plates were from Costar, Corning, N.Y. (black polystyrene). Recombinant human galectin-3 was produced in Escherichia coli and purified as previously described (S. M. Massa et al, 1993). PBS was 118 mM NaCl, 67 mM Na/K-phosphate, pH 7.2, 2 mM EDTA, 4 mM β-mercaptoethanol.
# To 100 μL of galectin-3 (1 μM) and a fluorescent probe (2-(fluorescein-5/6-yl-carbonyl)-aminoethyl 4-O-[3-O-(4-methoxy]benzyl)-β-D-galactopyranosyl]-β-D-glucopyranoside, 0.1 μM) were added inhibitor solution (3.2-10000 μM, 100 μL), the plate was incubated under slow rotary shaking in the dark for 5 minutes, and fluorescence polarization measured at room temperature. The fluorescence was measured from above in 96 well microtiter plates (black polystyrene, Costar, Corning, N.Y.) using a PolarStar instrument (BMG, Offenburg; Germany). Control wells containing only fluorescent probe or fluorescein were included. All dilutions and measurements were done in PBS.
# galectins = conditions: cited from earlier work
# [2] = galectin-3, fluorescence polarization
# T1 sequence (P17931 whole entry): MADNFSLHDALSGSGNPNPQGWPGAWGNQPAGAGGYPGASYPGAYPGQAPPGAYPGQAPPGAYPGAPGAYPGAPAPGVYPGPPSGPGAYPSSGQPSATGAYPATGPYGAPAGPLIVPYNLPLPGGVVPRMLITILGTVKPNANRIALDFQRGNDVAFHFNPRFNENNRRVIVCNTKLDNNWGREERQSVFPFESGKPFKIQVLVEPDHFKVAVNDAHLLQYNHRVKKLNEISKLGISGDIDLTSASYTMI
Kd ([1]; read-out: Calculated Kd) [nM],SMILES,further results
386000,"CS[C@@H]1O[C@H](CO)[C@H](O)[C@H](n2cc(C(=O)NCCCO)nn2)[C@H]1O [Compound 17, Methyl 3-{4-(3-hydroxyprop-1-ylaminocarbonyl)-1H-[1,2,3]-triazol-1-yl}-3-deoxy-1-thio-β-D-galactopyranoside]",
571000,"CS[C@@H]1OC(CO)[C@H](O)C(n2cc(C(=O)NCCN3CCOCC3)nn2)C1O (stereo partly drawn) [Compound 18, Methyl 3-{4-[2-(N-morpholino)-ethylaminocarbonyl]-1H-[1,2,3]-triazol-1-yl}-3-deoxy-1-thio-β-D-galactopyranoside]",
1.41e+06,"COC(=O)c1cn([C@H]2[C@@H](O)[C@@H](CO)O[C@@H](SC)[C@@H]2O)nn1 [Compound 10, Methyl 3-(4-methoxycarbonyl-1H-[1,2,3]-triazol-1-yl)-3-deoxy-1-thio-β-D-galactopyranoside]",
124000,"CCCCNC(=O)c1cn(C2C(O)[C@H](SC)OC(CO)[C@@H]2O)nn1 (stereo partly drawn) [Compound 15, Methyl 3-(4-butylaminocarbonyl-1H-[1,2,3]-triazol-1′-yl)-3-deoxy-1-thio-β-D-galactopyranoside]","improvement in Kd in comparison with the reference inhibitor 27 [1, 2]: 50 fold"
4.62e+06,"CCCc1cn([C@H]2[C@@H](O)[C@@H](CO)O[C@@H](SC)[C@@H]2O)nn1 [Compound 9, Methyl 3-deoxy-3-(4-propyl-1H-[1,2,3]-triazol-1-yl)-1-thio-β-D-galactopyranoside]",

# Continued, molecule first:
SMILES,Kd ([1]; read-out: Calculated Kd) [nM],further results
"CS[C@@H]1O[C@H](CO)[C@H](O)[C@H](n2cc(-c3ccccc3)nn2)[C@H]1O [Compound 12, Methyl 3-deoxy-3-(4-phenyl-1H-[1,2,3]-triazol-1-yl)-1-thio-β-D-galactopyranoside]",147000,"improvement in Kd in comparison with the reference inhibitor 27 [1, 2]: 50 fold"
OC[C@H]1O[C@@H](O[C@H]2[C@H](O)[C@@H](O)C(O)O[C@@H]2CO)[C@H](O)[C@@H](O)[C@H]1O (some centres unmarked) [lactose],,"Kd (galectins; all galectins, reviewed by Leffler, 2001 and Leffler et al., 2004): 500 to 1000 µM"
"CNC(=O)c1cn([C@H]2[C@@H](O)[C@@H](CO)O[C@@H](S[C@@H]3O[C@H](CO)[C@H](O)[C@H](n4cc(C(=O)NC)nn4)[C@H]3O)[C@@H]2O)nn1 [Compound 26, Bis-(3-deoxy-3-{4-[(methylamino)carbonyl]-1H-1,2,3-triazol-1-yl}-β-D-galactopyranosyl)sulfane]",,"Kd ([1]; galectin-3, fluorescence polarization, value given in text in nM, read-out: Kd): 150 nM"
"CS[C@@H]1O[C@H](CO)[C@H](O)[C@H](n2cc(C3(O)CCCCC3)nn2)[C@H]1O [Compound 11, Methyl 3-deoxy-3-(4-(1-hydroxy-1-cyclohexyl)-1H-[1,2,3]-triazol-1-yl)-1-thio-β-D-galactopyranoside]",1.38e+06,
"CS[C@@H]1O[C@H](CO)[C@H](O)[C@H](n2ccnn2)[C@H]1O [Compound 8, Methyl 3-deoxy-3-(1H-[1,2,3]-triazol-1-yl)-1-thio-β-D-galactopyranoside]",2.1e+07,
"CS[C@@H]1O[C@H](CO)[C@H](O)[C@H](n2cc(C(=O)NCc3ccccc3)nn2)[C@H]1O [Compound 16, Methyl 3-(4-benzylaminocarbonyl-1H-[1,2,3]-triazol-1-yl)-3-deoxy-1-thio-β-D-galactopyranoside]",,"improvement in Kd in comparison with the reference inhibitor 27 [1, 2]: 50 fold"
"CS[C@@H]1O[C@H](CO)[C@H](O)[C@H](n2cc(S(=O)(=O)c3ccc(C)cc3)nn2)[C@H]1O [Compound 13, Methyl 3-deoxy-3-(4-p-tolylsulfonyl-1H-[1,2,3]-triazol-1-yl)-1-thio-β-D-galactopyranoside]",141000,"improvement in Kd in comparison with the reference inhibitor 27 [1, 2]: 50 fold"
O=C[C@H](O)[C@@H](O)[C@@H](O)[C@H](O)CO [D-galactose],,"affinity lower than lactose (galectins; galectins, relative to lactose): 50-100 times"
"CNC(=O)c1cn([C@H]2[C@@H](O)[C@@H](CO)O[C@@H](SC)[C@@H]2O)nn1 [Compound 14, Methyl 3-(4-methylaminocarbonyl-1H-[1,2,3]-triazol-1-yl)-3-deoxy-1-thio-β-D-galactopyranoside]",,"Kd ([1]; affinity for galectin-3 calculated from test by fluorescence polarization at one tested conc., galectin-3 1 μM, probe 0.1 μM, PBS, room temperature, read-out: Calculated Kd): 230000 nM"
